According to ChEMBL document CHEMBL3112491, “3-(5-)-Amino-o-diarylisoxazoles: regioselective synthesis and antitubulin activity” (2014):

Experiments:
Assay type in all cases: functional
MDA-MB-468 = assay: Growth inhibition of human MDA-MB-468 cells after 48 hrs by sulforhodamine B assay; conditions: MDA-MB-468, 48 h
[1] = Growth inhibition of human Hs 578T cells after 48 hrs by sulforhodamine B assay
Malme-3M = assay: Growth inhibition of human MALME-3M cells after 48 hrs by sulforhodamine B assay
Paracentrotus lividus [2] = assay: Antimitotic activity in sea urchin fertilized egg assessed as cleavage arrest treated at 8 to 20 mins post-fertilization measured at 2.5 to 5.5 hrs post-fertilization
786-0 = assay: Growth inhibition of human 786-0 cells after 48 hrs by sulforhodamine B assay; conditions: 786-0, 48 h
[3] = Growth inhibition of human EKVX cells after 48 hrs by sulforhodamine B assay
HT-29 = assay: Growth inhibition of human HT-29 cells after 48 hrs by sulforhodamine B assay; conditions: HT-29, 48 h
[4] = Growth inhibition of human NCI-ADR-RES cells after 48 hrs by sulforhodamine B assay
[5] = Growth inhibition of human UACC257 cells after 48 hrs by sulforhodamine B assay; conditions: UACC-257, 48 h
MCF7 = assay: Growth inhibition of human MCF7 cells after 48 hrs by sulforhodamine B assay; conditions: MCF7, 48 h
[6] = Growth inhibition of human OVCAR5 cells after 48 hrs by sulforhodamine B assay; conditions: OVCAR-5, 48 h
Paracentrotus lividus [7] = assay: Microtubule destabilizing activity in sea urchin free-swimming blastula assessed as embryo spinning treated at 9 to 10 hrs post-fertilization measured after 0.15 to 15 hrs
NCI-H23 = assay: Growth inhibition of human NCI-H23 cells after 48 hrs by sulforhodamine B assay; conditions: NCI-H23, 48 h
A498 = assay: Growth inhibition of human A498 cells after 48 hrs by sulforhodamine B assay; conditions: A498, 48 h
COLO 205 = assay: Growth inhibition of human COLO205 cells after 48 hrs by sulforhodamine B assay; conditions: COLO 205, 48 h
UACC-62 = assay: Growth inhibition of human UACC62 cells after 48 hrs by sulforhodamine B assay; conditions: UACC-62, 48 h
HL-60(TB) = assay: Growth inhibition of human HL-60(TB) cells after 48 hrs by sulforhodamine B assay; conditions: HL-60, 48 h
MDA-MB-231 = assay: Growth inhibition of human MDA-MB-231 cells after 48 hrs by sulforhodamine B assay; conditions: MDA-MB-231, 48 h
PC-3 = assay: Growth inhibition of human PC3 cells after 48 hrs by sulforhodamine B assay; conditions: PC-3, 48 h
[8] = Growth inhibition of human HOP92 cells after 48 hrs by sulforhodamine B assay; conditions: HOP-92, 48 h
OVCAR-8 = assay: Growth inhibition of human OVCAR8 cells after 48 hrs by sulforhodamine B assay; conditions: OVCAR-8, 48 h
BT-549 = assay: Growth inhibition of human BT549 cells after 48 hrs by sulforhodamine B assay; conditions: BT-549, 48 h
LOX IMVI = assay: Growth inhibition of human LOXIMVI cells after 48 hrs by sulforhodamine B assay
Paracentrotus lividus [9] = assay: Antimitotic activity in sea urchin fertilized egg assessed as cleavage alteration treated at 8 to 20 mins post-fertilization measured at 2.5 to 5.5 hrs post-fertilization
NCI-H322M = assay: Growth inhibition of human NCI-H322M cells after 48 hrs by sulforhodamine B assay
U-251 = assay: Growth inhibition of human U251 cells after 48 hrs by sulforhodamine B assay; conditions: U-251, 48 h
IGROV-1 = assay: Growth inhibition of human IGROV1 cells after 48 hrs by sulforhodamine B assay; conditions: IGROV-1, 48 h
[10] = Growth inhibition of human SF539 cells after 48 hrs by sulforhodamine B assay; conditions: SF-539, 48 h
M14 = assay: Growth inhibition of human M14 cells after 48 hrs by sulforhodamine B assay; conditions: M14, 48 h
HOP-62 = assay: Growth inhibition of human HOP62 cells after 48 hrs by sulforhodamine B assay; conditions: HOP-62, 48 h
HCT-15 = assay: Growth inhibition of human HCT15 cells after 48 hrs by sulforhodamine B assay; conditions: HCT-15, 48 h
MOLT-4 = assay: Growth inhibition of human MOLT4 cells after 48 hrs by sulforhodamine B assay; conditions: MOLT-4, 48 h
HCT-116 = assay: Growth inhibition of human HCT116 cells after 48 hrs by sulforhodamine B assay; conditions: HCT-116, 48 h
SNB-19 = assay: Growth inhibition of human SNB19 cells after 48 hrs by sulforhodamine B assay; conditions: SNB-19, 48 h
TK-10 = assay: Growth inhibition of human TK10 cells after 48 hrs by sulforhodamine B assay; conditions: TK-10, 48 h
NCI-H460 = assay: Growth inhibition of human NCI-H460 cells after 48 hrs by sulforhodamine B assay; conditions: NCI-H460, 48 h
[11] = Growth inhibition of human HCC2998 cells after 48 hrs by sulforhodamine B assay; conditions: HCC 2998, 48 h
ACHN = assay: Growth inhibition of human ACHN cells after 48 hrs by sulforhodamine B assay
OVCAR-3 = assay: Growth inhibition of human OVCAR3 cells after 48 hrs by sulforhodamine B assay; conditions: OVCAR-3, 48 h
SK-MEL-5 = assay: Growth inhibition of human SK-MEL-5 cells after 48 hrs by sulforhodamine B assay; conditions: SK-MEL-5, 48 h
SN12C = assay: Growth inhibition of human SN12C cells after 48 hrs by sulforhodamine B assay
NCI-H522 = assay: Growth inhibition of human NCI-H522 cells after 48 hrs by sulforhodamine B assay; conditions: NCI-H522, 48 h
SR = assay: Growth inhibition of human SR cells after 48 hrs by sulforhodamine B assay
[12] = Growth inhibition of human UO31 cells after 48 hrs by sulforhodamine B assay; conditions: UO-31, 48 h
[13] = Growth inhibition of human OVCAR4 cells after 48 hrs by sulforhodamine B assay; conditions: OVCAR-4, 48 h
SF-268 = assay: Growth inhibition of human SF268 cells after 48 hrs by sulforhodamine B assay; conditions: SF-268, 48 h
SF-295 = assay: Growth inhibition of human SF295 cells after 48 hrs by sulforhodamine B assay; conditions: SF-295, 48 h
A549 = assay: Growth inhibition of human A549/ATCC cells after 48 hrs by sulforhodamine B assay; conditions: A549, 48 h
NCI-H226 = assay: Growth inhibition of human NCI-H226 cells after 48 hrs by sulforhodamine B assay; conditions: NCI-H226, 48 h
SK-MEL-2 = assay: Growth inhibition of human SK-MEL-2 cells after 48 hrs by sulforhodamine B assay; conditions: SK-MEL-2, 48 h
MDA-MB-435 = assay: Growth inhibition of human MDA-MB-435 cells after 48 hrs by sulforhodamine B assay; conditions: MDA-MB-435, 48 h
SK-OV-3 = assay: Growth inhibition of human SKOV3 cells after 48 hrs by sulforhodamine B assay; conditions: SK-OV-3, 48 h
SW-620 = assay: Growth inhibition of human SW620 cells after 48 hrs by sulforhodamine B assay; conditions: SW-620, 48 h
SNB-75 = assay: Growth inhibition of human SNB75 cells after 48 hrs by sulforhodamine B assay; conditions: SNB-75, 48 h
DU-145 = assay: Growth inhibition of human DU145 cells after 48 hrs by sulforhodamine B assay; conditions: DU-145, 48 h
KM12 = assay: Growth inhibition of human KM12 cells after 48 hrs by sulforhodamine B assay; conditions: KM12, 48 h

`COc1ccc(-c2c(-c3cc(OC)c(OC)c(OC)c3)noc2N)cc1` showed a GI50 (MDA-MB-468) of under 10 nM, a GI50 [1] of under 10 nM and a GI50 (Malme-3M) of 13400 nM. The EC (Paracentrotus lividus [2]) was 0.005 µM, the GI50 (786-0) was under 10 nM and the GI50 [3] was 15200 nM. The GI50 (HT-29) was under 10 nM, the GI50 [4] was under 10 nM and the GI50 [5] was under 10 nM. For the same compound, the GI50 (MCF7) was under 10 nM, the GI50 [6] was 46.6 nM and the EC (Paracentrotus lividus [7]) was 0.5 µM. The GI50 (NCI-H23) was 14.9 nM, the GI50 (A498) was under 10 nM and the GI50 (COLO 205) was under 10 nM. The GI50 (UACC-62) was under 10 nM, the GI50 (HL-60(TB)) was under 10 nM and the GI50 (MDA-MB-231) was 31.9 nM. The GI50 (PC-3) was under 10 nM, the GI50 [8] was under 10 nM and the GI50 (OVCAR-8) was 13.9 nM. It also gave a GI50 (BT-549) of 19.3 nM, a GI50 (LOX IMVI) of under 10 nM and an EC (Paracentrotus lividus [9]) of 0.002 µM. It also gave a GI50 (NCI-H322M) of 56.7 nM, a GI50 (U-251) of under 10 nM and a GI50 (IGROV-1) of 10.6 nM. The GI50 [10] was under 10 nM, the GI50 (M14) was under 10 nM and the GI50 (HOP-62) was 14.4 nM. It also gave a GI50 (HCT-15) of under 10 nM, a GI50 (MOLT-4) of 27.4 nM and a GI50 (HCT-116) of under 10 nM. It also gave a GI50 (SNB-19) of 25.1 nM, a GI50 (TK-10) of 10500 nM and a GI50 (NCI-H460) of under 10 nM. For the same compound, the GI50 [11] was 15.1 nM, the GI50 (ACHN) was under 10 nM and the GI50 (OVCAR-3) was under 10 nM. It also gave a GI50 (SK-MEL-5) of under 10 nM, a GI50 (SN12C) of 32.8 nM and a GI50 (NCI-H522) of under 10 nM. The GI50 (SR) was under 10 nM, the GI50 [12] was under 10 nM and the GI50 [13] was 14.5 nM. For the same compound, the GI50 (SF-268) was under 10 nM, the GI50 (SF-295) was under 10 nM and the GI50 (A549) was under 10 nM. It also gave a GI50 (NCI-H226) of 24.4 nM, a GI50 (SK-MEL-2) of 18.8 nM and a GI50 (MDA-MB-435) of under 10 nM. It also gave a GI50 (SK-OV-3) of under 10 nM, a GI50 (SW-620) of under 10 nM and a GI50 (SNB-75) of under 10 nM. It also gave a GI50 (DU-145) of 13.5 nM and a GI50 (KM12) of under 10 nM.
